Literature values, collected in article PMC7674238 (Accounts of chemical research, 2020).
Where two headings read alike, the source gives them in different places.

Legend:
[1] = test system: vancomycin-resistant S. aureus (VRSA) strain VRS-2; settings: for dose-dependent bactericidal effect, rank order (relative to 2 h baseline): n=5/dose
VanA VRE [2] = test system: VanA VRE
[3] = mice, iv
VanA VRE [4] = settings: 10 μM
[5] = mice
VanA VRE [6] = settings: vancomycin-resistant organisms
D-Ala-D-Lac = D-Ala-D-Lac vs D-Ala-D-Ala

Row | Compound | reduction in bacteria count ([1]; VanA VRSA, VRS2, without dosing optimization) | resistance development on 50-day serial exposure (VanA VRE [2]) | AUC ([3]; 10 mg/kg) | CL ([3]; 10 mg/kg) | Cmax ([3]; 10 mg/kg) | Vd ([3]; 10 mg/kg) | t1/2 ([3]; 10 mg/kg) | AUC ([3]; 50 mg/kg (MTD)) | CL ([3]; 50 mg/kg (MTD)) | Cmax ([3]; 50 mg/kg (MTD)) | Vd ([3]; 50 mg/kg (MTD)) | t1/2 ([3]; 50 mg/kg (MTD)) | induction of bacteria cell permeabilization (VanA VRE [4]) | Maximum tolerated dose (MTD) ([5]; iv) | tolerability [5] | dose-dependent bactericidal effect, rank order (relative to 2 h baseline) [1] | loss in antimicrobial activity (resistance) (VanA VRE [6]) | loss in binding affinity between vancomycin and its target (D-Ala-D-Lac)
1 | CN[C@H](CC(C)C)C(=O)N[C@H]1C(=O)N[C@@H](CC(N)=O)C(=O)N[C@H]2C(=O)NC3C(=O)N[C@H](C(=O)N[C@H](C(=O)NCCC[N+](C)(C)C)c4cc(O)cc(O)c4-c4cc3ccc4O)[C@H](O)c3ccc(c(Cl)c3)Oc3cc2cc(c3OC2OC(CO)C(O)[C@H](O)[C@@H]2O[C@H]2CC(C)(NCc3ccc(-c4ccc(Cl)cc4)cc3)[C@H](O)[C@H](C)O2)Oc2ccc(cc2Cl)[C@H]1O (stereo partly shown) [compound 26, C1-CBP-vancomycin] | ~3 log10 | much more muted changes in potency | 81.1 µg·h/mL | 2 mL/min/kg | 14100 ng/mL | 1.25 L/kg | 7.0 h | 430 µg·h/mL | 2 mL/min/kg | 58900 ng/mL | 1.04 L/kg | 6.2 h | more significant | ≥ 50 mg/kg | well tolerated in mice | – | – | –
2 | CC(=O)NC[C@H]1CN(c2ccc(N3CCOCC3)c(F)c2)C(=O)O1 [linezolid] | – | – | – | – | – | – | – | – | – | – | – | – | – | – | – | 32 > 26 ≥ 16 > linezolid > 1 | – | –
3 | CN[C@H](CC(C)C)C(=O)N[C@H]1C(=O)N[C@@H](CC(N)=O)C(=O)N[C@H]2C(=O)N[C@H]3C(=O)N[C@H](C(=O)N[C@H](C(=O)O)c4cc(O)cc(O)c4-c4cc3ccc4O)[C@H](O)c3ccc(c(Cl)c3)Oc3cc2cc(c3O[C@@H]2O[C@H](CO)[C@@H](O)[C@H](O)[C@H]2O[C@H]2C[C@](C)(N)[C@H](O)[C@H](C)O2)Oc2ccc(cc2Cl)[C@H]1O [compound 1, vancomycin] | – | – | – | – | – | – | – | – | – | – | – | – | – | – | – | 32 > 26 ≥ 16 > linezolid > 1 | 1000 fold | 1000 fold
